Marks after values point to notes of the source that are not given here.
How the values were obtained:
[1] = OLINDA/EXM predicted clinical doses: adult female phantom, non-normalised τ, iterative; set-up: species or system Sprague–Dawley rats; settings: rat, in vivo
Method: (§1) PET studies were reconstructed using filtered-back projection (FBP) and Mediso’s iterative Tera-Tomo 3D reconstruction algorithm with the following settings: 4 iterations, 6 subsets, full detector model, normal regularization, spike filter on, voxel size 0.4 mm and 400‒600 keV energy window. PET data were corrected for randoms, scatter and attenuation. Time-activity curves for each source organ, whole-body and remainder of the body were plotted. […] Residence times (τ) were determined for each radiotracer in source organs, whole-body and remaining (any activity assigned to the whole-body but not assigned to a source organ). Each preclinical source organ’s τ was determined by calculating the area under its respective time-activity curve (activity normalised to the percentage maximum injected dose as a function of time) using the trapezoid method. […] From each individual animal, eight dosimetry models were constructed from all possible combinations of image reconstruction method (FBP or iterative), τ (non-normalised or normalised to human organ masses), and sex of phantom (male or female). Supplementary table 10. Predicted clinical absorbed organ doses and whole-body effective doses of PET radiotracers using non-normalised (preclinical) adult female source organ residence times from iterative reconstructions.

[2] = Whole-body PET biodistribution in rats; format: in vivo, Sprague–Dawley rats; settings: PET images, i.v. bolus, 240 min
Method: On the day of imaging, rats were anaesthetised with 2‒2.5% isoflurane (50/50 oxygen/nitrous oxide, 1 L/min), then transferred to the preclinical PET/CT scanner (nanoPET/CT, Mediso, Hungary) and placed in a supine position. A CT scan (semi-circular full trajectory, maximum field of view, 480 projections, 50 kVp, 300 ms and 1:4 binning) was acquired for attenuation correction.
Immediately after radiotracer administration, a 240 min emission scan using 4 beds (50% overlap) was obtained using 3-dimensional 1:5 mode and re-binned as follows: 7 × 1 min, 2 × 5 min and 4 × 10 min. Throughout the PET/CT scanning session, animal temperature and respiration rate were monitored and controlled.
PET studies were reconstructed using filtered-back projection (FBP) and Mediso’s iterative Tera-Tomo 3D reconstruction algorithm with the following settings: 4 iterations, 6 subsets, full detector model, normal regularization, spike filter on, voxel size 0.4 mm and 400‒600 keV energy window. PET data were corrected for randoms, scatter and attenuation.
Reconstructed whole-body PET/CT images were imported into PMOD 3.8 software (PMOD Technologies, Switzerland) and static regions-of-interest (ROIs) were selected in approximately every third axial slice of source organs in animal subjects, which included the kidneys (left and right), urinary bladder, lungs (right and left), heart, brain, liver and intestine. […]

[3] = Residence times normalised to human organ masses, iterative reconstruction; set-up: species or system Sprague–Dawley rats; settings: rat, in vivo
Method: as §1, with “1. Scaling (normalisation) factors applied to residence times” for “10. Predicted clinical absorbed organ doses and whole-body effective doses”, “in male Sprague-Dawley rats to predict human” for “using non-normalised (preclinical)”, “adult” for “adult female source organ”, “times. […] Stabin et al. 2006 ^4); WB: Whole Body.” for “times from iterative reconstructions.”

[4] = Residence times normalised to human organ masses, FBP reconstruction; set-up: species or system Sprague–Dawley rats; settings: rat, in vivo
Method: as §1, with “1. Scaling (normalisation) factors applied to residence times” for “10. Predicted clinical absorbed organ doses and whole-body effective doses”, “in male Sprague-Dawley rats to predict human” for “using non-normalised (preclinical)”, “adult” for “adult female source organ”, “times. […] Stabin et al. 2006 ^4); WB: Whole Body.” for “times from iterative reconstructions.”

[5] = OLINDA/EXM predicted clinical doses: adult male phantom, non-normalised τ, FBP; set-up: species or system Sprague–Dawley rats; settings: rat, in vivo
Method: as §1, with “female).” for “female). Supplementary table 10. Predicted clinical absorbed organ doses and whole-body effective doses of PET radiotracers using non-normalised (preclinical) adult female source organ residence times from iterative reconstructions.”

## O=C[C@H]([18F])[C@@H](O)[C@H](O)[C@H](O)CO [FDG, 2-deoxy-2-[^18F]fluoro-D-glucose]
[1]
  Effective Dose: 7.95E-02 mSv/MBq
  Estimated Absorbed Dose of Organ, Adrenals: 1.20E-02 mGy/MBq
  Estimated Absorbed Dose of Organ, Brain: 6.80E-03 mGy/MBq
  Estimated Absorbed Dose of Organ, Breasts: 7.63E-03 mGy/MBq
  Estimated Absorbed Dose of Organ, Gallbladder Wall: 1.27E-02 mGy/MBq
  Estimated Absorbed Dose of Organ, Heart Wall: 3.36E-02 mGy/MBq
  Estimated Absorbed Dose of Organ, Kidneys: 3.95E-02 mGy/MBq
  Estimated Absorbed Dose of Organ, LLI Wall: 2.13E-01 ‡ mGy/MBq
  Estimated Absorbed Dose of Organ, Liver: 1.20E-02 mGy/MBq
  Estimated Absorbed Dose of Organ, Lungs: 8.85E-03 mGy/MBq
  Estimated Absorbed Dose of Organ, Muscle: 1.42E-02 mGy/MBq
  Estimated Absorbed Dose of Organ, Osteogenic Cells: 1.64E-02 mGy/MBq
  Estimated Absorbed Dose of Organ, Ovaries: 4.21E-02 mGy/MBq
  Estimated Absorbed Dose of Organ, Pancreas: 1.23E-02 mGy/MBq
  Estimated Absorbed Dose of Organ, Red Marrow: 1.35E-02 mGy/MBq
  Estimated Absorbed Dose of Organ, Skin: 8.59E-03 mGy/MBq
  Estimated Absorbed Dose of Organ, Small Intestine: 2.39E-02 mGy/MBq
  Estimated Absorbed Dose of Organ, Spleen: 1.16E-02 mGy/MBq
  Estimated Absorbed Dose of Organ, Stomach Wall: 1.21E-02 mGy/MBq
  Estimated Absorbed Dose of Organ, Thymus: 9.63E-03 mGy/MBq
  Estimated Absorbed Dose of Organ, Thyroid: 8.07E-03 mGy/MBq
  Estimated Absorbed Dose of Organ, ULI Wall: 1.93E-02 mGy/MBq
  Estimated Absorbed Dose of Organ, Urinary Bladder Wall: 7.75E-01 † mGy/MBq
  Estimated Absorbed Dose of Organ, Uterus: 5.40E-02 § mGy/MBq
  Estimated Absorbed Dose, Total Body: 1.49E-02 mGy/MBq
[2]
  organs with highest uptake: brain, heart, kidneys and urinary bladder
[3]
  Normalised Residence Time (h), Average: Remaining: 1.36 h
[4]
  Normalised Residence Time (h), Average: Remaining: 2.12 h
[5]
  Effective Dose (mSv/MBq), Average: 5.79E-02 mSv/MBq
  Estimated Absorbed Dose of Organ, Average: Adrenals: 1.22E-02 mGy/MBq
  Estimated Absorbed Dose of Organ, Average: Brain: 4.36E-03 mGy/MBq
  Estimated Absorbed Dose of Organ, Average: Breasts: 8.62E-03 mGy/MBq
  Estimated Absorbed Dose of Organ, Average: Gallbladder Wall: 1.32E-02 mGy/MBq
  Estimated Absorbed Dose of Organ, Average: Heart Wall: 1.51E-02 mGy/MBq
  Estimated Absorbed Dose of Organ, Average: Kidneys: 2.01E-02§ mGy/MBq
  Estimated Absorbed Dose of Organ, Average: LLI Wall: 2.39E-01† mGy/MBq
  Estimated Absorbed Dose of Organ, Average: Liver: 8.09E-03 mGy/MBq
  Estimated Absorbed Dose of Organ, Average: Lungs: 8.07E-03 mGy/MBq
  Estimated Absorbed Dose of Organ, Average: Muscle: 1.35E-02 mGy/MBq
  Estimated Absorbed Dose of Organ, Average: Osteogenic Cells: 1.76E-02 mGy/MBq
  Estimated Absorbed Dose of Organ, Average: Pancreas: 1.32E-02 mGy/MBq
  Estimated Absorbed Dose of Organ, Average: Red Marrow: 1.32E-02 mGy/MBq
  Estimated Absorbed Dose of Organ, Average: Skin: 9.20E-03 mGy/MBq
  Estimated Absorbed Dose of Organ, Average: Small Intestine: 2.21E-02 mGy/MBq
  Estimated Absorbed Dose of Organ, Average: Spleen: 1.23E-02 mGy/MBq
  Estimated Absorbed Dose of Organ, Average: Stomach Wall: 1.34E-02 mGy/MBq
  Estimated Absorbed Dose of Organ, Average: Testes: 1.76E-02 mGy/MBq
  Estimated Absorbed Dose of Organ, Average: Thymus: 1.07E-02 mGy/MBq
  Estimated Absorbed Dose of Organ, Average: Thyroid: 1.05E-02 mGy/MBq
  Estimated Absorbed Dose of Organ, Average: Total Body: 1.38E-02 mGy/MBq
  Estimated Absorbed Dose of Organ, Average: ULI Wall: 1.76E-02 mGy/MBq
  Estimated Absorbed Dose of Organ, Average: Urinary Bladder Wall: 3.23E-01‡ mGy/MBq
